# No end group written: not given here.
# How the values were obtained:
# SH-SY5Y = assay: 2D neuronal cell culture: cell attachment and neurite outgrowth; type: cell-based; settings: for neurite outgrowth without RA / neurite outgrowth with RA: 14-day culture; for neurite outgrowth with RA: 10 μM retinoic acid from day 7; for cell attachment on surface: 15% (wt) gel or laminin coated plate
# Experimental: Cells, SH-SY5Y (ATCC, CRL-2266), were cultured in DMEM/F12 (1:1) medium with 10% fetal bovine serum (FBS), and 1% antibiotics. The cells were incubated in a humidified atmosphere with 5% CO2 at 37° C. The medium was refreshed every three days until the cells reached 95% confluence. The cells were harvested from the petri dish by incubation in 1 ml of trypsin solution (0.25%) for 5 min, neutralizing with 5 ml of serum-supplemented medium, centrifugation and removal of supernatant. The cell pellets were resuspended in serum-supplemented medium and 5×10^3 cells was used immediately for 2D neuronal cell culture.
# Fifty μl of each solution (15%, wt) of pure reverse thermal gel and IKVAVS-GEL was transferred into 96-well plate on 37° C. heating plate. After 5 min, cell suspension (5×10^3 cells) in 150 μl of medium was added on top of the gel. For a control, the same number of cell suspension in 200 μl of medium was transferred into laminin coated 96-well plate. A 100 μl of medium was refreshed every two days. The cell growth was examined on a microscope. After 7-day culture, 10 μM of retinoic acid (RA) was added and neurite outgrowth was monitored on a microscope.
# [1] = buffer
# Experimental: The storage modus (G′) of the polymer solutions in phosphate buffered saline (PBS) solution was measured by rheometer from 20° C. to 55° C.
# Sprague Dawley rats = settings: rat, in vivo, sc
# Experimental: In vivo biocompatibility was evaluated in Sprague Dawley rats.
Substance,neurite outgrowth without RA (SH-SY5Y),neurite outgrowth with RA (SH-SY5Y),cell attachment on surface (SH-SY5Y),temperature range in which it remained gel [1],inflammatory response (Sprague Dawley rats)
IKVAVS-GEL: IKVAVS (SEQ ID NO: 21) conjugated reverse thermal gel (also: conjugated to reverse thermal gel; listed as Homo sapiens),much better than that on pure reverse thermal gel,much better than that on pure reverse thermal gel,attached well,,
laminin [reference compound],some short neurite outgrowth,much dense and longer neurite outgrowth,attached very well,,
poly(ethylene glycol)-poly(serinol hexamethylene urethane) [ESHU],,,,37-40 °C,well tolerated inflammatory response

# Reference: patent US9144598B2, “Reverse thermal gels and their use in cell therapy” (University of Pittsburgh—Of the Commonwealth System of …, priority 2010, dated 2015)
